From US9393213B2, “Nanocrystals, compositions, and methods that aid particle transport in mucus” (Kala Pharmaceuticals, Inc., priority 2012, dated 2016)

How the values were obtained:
[1] = assay type: physicochemical
Source text: Tenofovir (TFV) is a potent antiviral drug used to treat infectious diseases. Due to the fact that tenofovir (TFV) is highly water soluble, a method was developed for formulating mucus-penetrating particles of tenofovir. […] In order to decrease the water solubility of TFV, interactions between cations and nucleotides/nucleotide analogs were exploited. TFV interacts very strongly with zinc cations (Zn), via the phosphonate group and the purine ring structure. This interaction with zinc causes TFV precipitation into crystals that can be stabilized with the coatings described herein, halting aggregation and determining the crystal surface properties. Additionally, Zn is naturally present in vaginal fluid and has known antimicrobial properties recently extended to include anti-HIV activity.

[2] = Acute vaginal toxicity by H&E staining 24 h after intravaginal administration; assay type: in vivo, DP mice
Protocol: Standard hematoxylin and eosin (H&E) staining was used to investigate potential toxic effects of intravaginally administered nanoparticles. […] The same (BD-) MPPs and (BD-) CPs that were used for distribution and retention studies were tested for toxicity.
Five μL of particles or control solutions were administered intravaginally to the DP mouse model. After 24 h, whole cervicovaginal tracts were obtained and fixed in 4% paraformaldehyde solution for 24 h. Tissues were placed in 70% ethanol and taken to the Johns Hopkins Reference Histology Laboratory for paraffin embedding and standard H&E staining.

[3] = test system: IL-1β, IL-1α, TNF-α, and IL-6; assay: Cytokine concentrations in cervicovaginal lavage after daily vaginal treatment for 7 days; conditions: day 8 after daily dosing for seven days
Protocol: Because our ultimate goal was to test MPPs for protection against HSV-2, we compared an MPP formulation containing acyclovir monophosphate (ACVp) to N9, HEC placebo gel, PBS, and a gel vehicle (TFV vehicle) used in recent tenofovir clinical trials. Nanoparticle and control formulations were administered vaginally to Depo Provera-treated mice daily for seven days.
Twenty μL of each test agent was administered intravaginally to the DP mouse model once-a-day for seven (7) days. […] On the eighth day, each mouse was lavaged twice with 50 μL of PBS. Each lavage sample was diluted with an additional 200 μL of PBS and centrifuged to remove the mucus plug. Supernatant (200 μL) was removed and split into 50 μL for each of the four (IL-1β, IL-1α, TNF-α, and IL-6) Quantikine ELISA kits (R&D Systems, Inc.). ELISAs were conducted per the manufacturer's instructions.

[4] = Source text: [formula] where <Vmean> is the ensemble average trajectory-mean velocity, Vmean is the velocity of an individual particle averaged over its trajectory, the sample is the particle of interest, the negative control is a 200 nm carboxylated polystyrene particle, and the positive control is a 200 nm polystyrene particle densely PEGylated with 2 kDa-5 kDa PEG.
For instance, a fluorescent microscope equipped with a CCD camera can be used to capture 15 s movies at a temporal resolution of 66.7 ms (15 frames/s) under 100× magnification from several areas within each sample for each type of particles: sample, negative control, and positive control.
In a typical experiment, ≦0.5 uL of a nanosuspension (diluted if necessary to the surfactant concentration of ˜1%) was added to 20 μl of fresh CVM along with controls. […] Using a fluorescent microscope equipped with a CCD camera, 15 s movies were captured at a temporal resolution of 66.7 ms (15 frames/s) under 100× magnification from several areas within each sample for each type of particles: sample (pyrene), negative control, and positive control (natural blue fluorescence of pyrene allowed observing of pyrene nanoparticles separately from the controls). […] To enable easy comparison between different samples and normalize velocity data with respect to natural variability in penetrability of CVM samples, relative sample velocity <Vmean>rel, was determined according to the formula shown in Equation 1.
CVM was collected by inserting a Softcup® menstrual collection cup into the vaginal tract as described by the product literature for between 30 seconds and 2 minutes. After removal the CVM was then collected from the Softcup® by gentle centrifugation at ˜30×G to ˜120×G in a 50 mL centrifuge tube. In Example 1, CVM was used undiluted and fresh (stored for no longer than 7 days under refrigerated conditions). Barrier and transport of all CVM samples used in Example 1 were verified with negative (200 nm carboxylated polystyrene particles) and positive (200 nm polystyrene particles modified with PEG 5K) controls. In Example 2, CVM was lyophilized and reconstituted. In Example 2, mucus was frozen at −50° C. and then lyophilized to dryness. Samples were then stored at −50° C. Before use, the mucus was reconstituted by grinding the solid into a fine powder using a mortar and pestle followed by water addition to a final volume equal to the original volume to 2 times the original volume. The reconstituted mucus was then incubated at 4° C. for 12 hours and used as described in Example 2. Barrier and transport of all CVM samples used in Example 2 were verified with negative (200 nm carboxylated polystyrene particles) and positive (F127 coated 200 nm polystyrene particles) controls.

[5] = test system: HSV-2 strain G; assay: HSV-2 vaginal challenge in mice; assay type: in vivo, CF-1 mice; conditions: intravaginal 30 min before challenge
Protocol: Female 6-8 week old CF-1 mice were subcutaneously injected with medroxyprogesterone acetate, and one week later received 20 μl of test agent or PBS intravaginally with a fire-polished positive displacement capillary pipette (Wiretrol, Drummond Scientific). Thirty minutes later, mice were challenged with 10 uL of inoculum containing HSV-2 strain G (ATCC #VR-734, 2.8×10^7 TCID50 per mL). […] Mice were assessed for infection three days later after inoculation by culturing a PBS vaginal lavage on human foreskin fibroblasts (Diagnostic Hybrids, MRHF Lot #440318W), as described previously (R. A. Cone, T. Hoen, X. Wong, R. Abusuwwa, D. J. Anderson, T. R. Moench, Vaginal microbicides: detecting toxicities in vivo that paradoxically increase pathogen transmission. BMC Infect Dis 6, 90 (2006)).
Both the drug and the virus were administered intravaginally.
ACVp nanoparticles were formulated with the same muco-inert coating used for all other studies. […] To study the distribution and retention of nanoparticles at the vaginal mucosal surface and the effects of repeated dosing, 6-8 week old CF-1 mice (Harlan) were used. Mice were housed in a reversed light cycle facility (12 h light/12 h dark). […] Journal of Virology 79, 3107-3116 (2005)).
All data are presented as a mean with standard error of the mean (SEM) indicated. Statistical significance was determined by a two-tailed, Student's t-test (α=0.05) assuming unequal variance. In the case of HSV-2 challenge, statistical significance was determined using Fisher's exact test, two-tailed distribution.

[6] = test system: HSV-2; conditions: single vaginal pretreatment with 50 mg/mL (5%); guinea pigs; cited from earlier work

## C[C@H](Cn1cnc2c(N)ncnc21)OCP(=O)(O)O [TFV, tenofovir]
[1]
  water solubility: at least 15 mg/mL

## Nonoxynol-9 [N9]
[2]
  inflammation in H&E-stained vaginal tissue: acute inflammation
[3]
  IL-1α level in vaginal lavage: elevated
  IL-1β level in vaginal lavage: elevated

## Tween 80
[4]
  Sample (relative) <Vmean>rel: 0.17
  Sample <Vmean>: 0.94 um/s

## Tyloxapol
[4]
  Sample (relative) <Vmean>rel: −0.02
  Sample <Vmean>: 0.42 um/s

## acyclovir monophosphate [Soluble ACV]
[5]; 1 mg/mL in PBS
  % Infected: 84.0%
[5]; 1 mg/mL in PBS, 25 mice
  # Infected: 21
[5]; 1 mg/mL in PBS, listed as Soluble ACVp
  % Infected: 84%
[5]; 1 mg/mL in PBS, listed as soluble ACVp
  % Infected: 84.0%
[5]; 10 mg/mL in PBS
  % Infected: 62.0%
[5]; 10 mg/mL in PBS, 100 mice
  # Infected: 62
[5]; 10 mg/mL in PBS, listed as Soluble ACVp
  % Infected: 62%
[5]; 10 mg/mL in PBS, listed as soluble ACVp
  % Infected: 62.0%
[5]; 10 mg/mL in Water
  % Infected: 69.3%
[5]; 10 mg/mL in Water, 75 mice
  # Infected: 52
[6]
  animals infected compared to controls: 70%
